In article PMC4794209, “Preformulation Studies on Piperlongumine” (PLoS ONE, 2016):
Converted amounts (≈) assume the structure as drawn. Where two headings read alike, the source gives them in different places.

Tests used:
Format in all cases: physicochemical
[1] = Additional stability studies with antioxidants, chelator, hydrogen peroxide
Protocol: The addition of antioxidants such as ascorbic acid and sodium bisulfite and the chelator EDTA were evaluated with the drug at pH 3 (citrate buffer) and pH 7 (phosphate buffer). Samples in phosphate buffer were maintained at 26°C while the samples in citrate buffer were kept at 56°C. All three agents were used at a concentration of 0.05% w/v. Aliquots were withdrawn on a regular basis and pH and drug concentration were monitored. Piperlongumine stability was also examined after the addition of 1.5% w/v hydrogen peroxide in pH 3 citrate buffer at room temperature.

[2] = Photo-stability (UV sunlamps, 165 min); conditions: for Photo-degradation: UV exposure
Protocol: Photo-stability was examined by preparing four groups of samples, each containing a triplicate sample and one reference (protected from light). These groups covered high and low drug concentrations in the following compositions:
• 150 μg/ml of drug in 100% acetonitrile • 150 μg/ml of drug in 15:85 acetonitrile: water • 30 μg/ml of drug in 100% acetonitrile • 30 μg/ml of drug in 15:85 acetonitrile: water
Each sample was prepared in a transparent glass vial and closed without any entrapped air. A reference sample was utilized for each group by covering one of the vials with aluminum foil to protect it from the light exposure. All vials were exposed for 165 min using Sun 340 sunlamps yielding UV emission between 295 and 390 nm to include UVA and UVB wavelengths. Samples were placed in an area where the UV intensity was measured to be 1.57 mw/cm^2. After the exposure time, samples were analyzed using the HPLC method described previously.

[3] = n-octanol/water partitioning study; conditions: room temperature, read-out: Partition coefficient (log P)
Protocol: Piperlongumine crystals were placed in a small glass bottle containing equal volumes of n-octanol and water. The bottle was shaken for 24 hours, after which time, the bottle was allowed to equilibrate without mixing for an additional 24 hours to ensure full separation between the n-octanol and water layers. A sample from each layer was carefully withdrawn and analyzed by HPLC.

[4] = Solubility studies (excess drug, agitation at least 24 h, HPLC)
[5] = as above; remark: listed apart in the source
Protocol: Solubility of piperlongumine was determined in purified water and the following cosolvent and surfactant systems: 5, 15, 30% (v/v) acetonitrile; 5, 15, 30, 50, 100% (v/v) of polyethylene glycol 400 (PEG 400), ethanol, glycerin and propylene glycol; 3, 7, 10% (w/v) of Tween 80; 2.5, 5, 10% (w/v) of Cremophor Rh 40; and a solution composition of 10% ethanol: 40% PEG 400 (w/v). Additionally, the complexing agents, sulfobutyl ether β-cyclodextrin sodium salt and hydroxyl-propyl-β-cyclodextrin, were examined at concentrations of 5, 10, 20, 40% (w/v).
An excess quantity of raw drug crystals were placed in a known volume of each medium in closed, light protected glass vials and allowed to agitate for at least 24 hours at ambient temperature. Samples were visually inspected to ensure that solid drug was still in excess and then filtered through a 0.2 μm PTFE filter. The filtrate was assayed via the previously described HPLC method and the concentration of piperlongumine in solution was determined.

[6] = citrate, pH 3, 26°C, hydrogen peroxide 1.5% w/v
[7] = citrate, pH 3, 56°C, EDTA 0.05% w/v
[8] = citrate, pH 3, 56°C, ascorbic acid 0.05% w/v
[9] = citrate, pH 3, 56°C, no additional substance
[10] = citrate, pH 3, 56°C, sodium bisulfite 0.05% w/v
[11] = phosphate, pH 7, 26°C, EDTA 0.05% w/v
[12] = phosphate, pH 7, 26°C, ascorbic acid 0.05% w/v
[13] = phosphate, pH 7, 26°C, no additional substance
[14] = phosphate, pH 7, 26°C, sodium bisulfite 0.05% w/v

**Q.** With COc1cc(/C=C/C(=O)N2CCC=CC2=O)cc(OC)c1OC [piperlongumine, 1-[(2E)-3-(3,4,5-trimethoxyphenyl)prop-2-enoyl]-1,2,5,6-tetrahydropyridin-2-one] as the compound, how does the “Effect on the stability profile” value ([1]; addition of ascorbic acid and EDTA, pH 7 phosphate buffer, vs drug alone) read?
**A.** The value was “did not have a significant effect”.

**Q.** And the Effect on degradation ([1]; addition of ascorbic acid, pH 3)?
**A.** Its Effect on degradation is “did not readily affect the degradation”.

**Q.** And the Effect on degradation ([1]; addition of hydrogen peroxide (oxidizing agent))?
**A.** The Effect on degradation was “does significantly increase degradation”.

**Q.** And the “Effect on degradation rate” value ([1]; addition of sodium bisulfite, pH 3 citrate buffer, 56°C, vs drug alone)?
**A.** The value was “did not affect the degradation rate”.

**Q.** What about the Time of degradation ([1]; addition of sodium bisulfite, pH 7) of the same compound?
**A.** The Time of degradation was “within a few minutes”.

**Q.** What about the T90 [1, 6] of the same compound?
**A.** Its T90 is 0.3 weeks.

**Q.** What about the k values [1, 6] of the same compound?
**A.** The k values was 0.3369 weeks^-1.

**Q.** What about the T90 [1, 7] of the same compound?
**A.** Its T90 is 0.3 weeks.

**Q.** And the k values [1, 7]?
**A.** Its k values is 0.3266 weeks^-1.

**Q.** What about the T90 [1, 8] of the same compound?
**A.** Its T90 is 0.3 weeks.

**Q.** And the k values [1, 8]?
**A.** Its k values is 0.3706 weeks^-1.

**Q.** What about the T90 [1, 9] of the same compound?
**A.** The T90 was 0.3 weeks.

**Q.** What about the k values [1, 9] of the same compound?
**A.** The k values was 0.3107 weeks^-1.

**Q.** What about the T90 [1, 10] of the same compound?
**A.** Its T90 is 0.3 weeks.

**Q.** And the k values [1, 10]?
**A.** The k values was 0.3860 weeks^-1.

**Q.** What about the T90 [1, 11] of the same compound?
**A.** The T90 was 1.9 weeks.

**Q.** And the k values [1, 11]?
**A.** The k values was 0.0559 weeks^-1.

**Q.** And the T90 [1, 12]?
**A.** Its T90 is 2.3 weeks.

**Q.** What about the k values [1, 12] of the same compound?
**A.** The k values was 0.0459 weeks^-1.

**Q.** What about the T90 [1, 13] of the same compound?
**A.** The T90 was 2.1 weeks.

**Q.** And the k values [1, 13]?
**A.** The k values was 0.0494 weeks^-1.

**Q.** What about the T90 [1, 14] of the same compound?
**A.** Its T90 is 0.0 weeks.

**Q.** What about the k values [1, 14] of the same compound?
**A.** The k values was 3069.8950 weeks^-1.

**Q.** And the “Average % of drug remaining ± SD” value ([2]; 30 μg/ml, acetonitrile:water 15:85, UV 165 min)?
**A.** The value was 79.0 ± 0.1%.

**Q.** What about the “Average % of drug remaining ± SD” value ([2]; 30 μg/ml, acetonitrile:water 100:00, UV 165 min) of the same compound?
**A.** Its value is 39.5 ± 0.03%.

**Q.** What about the “Average % of drug remaining ± SD” value ([2]; 150 μg/ml, acetonitrile:water 15:85, UV 165 min) of the same compound?
**A.** The value was 82.3 ± 0.6%.

**Q.** And the “Average % of drug remaining ± SD” value ([2]; 150 μg/ml, acetonitrile:water 100:00, UV 165 min)?
**A.** The value was 44.5 ± 0.2%.

**Q.** What about the Photo-degradation ([2]; 15:85 acetonitrile: water) of the same compound?
**A.** Its Photo-degradation is “approximately 20%”.

**Q.** And the “Concentration remaining of the initial concentration” value ([2]; light protected control samples, after exposure duration)?
**A.** Its value is 100%.

**Q.** And the Photo-degradation ([2]; pure acetonitrile)?
**A.** Its Photo-degradation is 60%.

**Q.** What about the “Photo-degradation upon exposure to an ultraviolet light source” value ([2]; qualitative) of the same compound?
**A.** Its value is “marked photo-degradation”.

**Q.** And the logP at 24 h [3]?
**A.** The logP at 24 h was 2.37 ± 0.12.

**Q.** And the “Water solubility as a function of pH” value [4]?
**A.** Its value is “does not change as a function of pH”.

**Q.** What about the solubility ([5]; 10% (w/v) Cremophor Rh 40, aqueous with cosolvent or surfactant or cyclodextrin, thermodynamic from solid, 10% (w/v) Cremophore Rh 40, read-out: Solubility) of the same compound?
**A.** The solubility was about 550 µg/mL (≈ 1.73 mM).

**Q.** And the solubility ([5]; 10% (w/v) Tween 80, aqueous with cosolvent or surfactant or cyclodextrin, thermodynamic from solid, 10% Tween 80, read-out: Solubility)?
**A.** The solubility was about 700 µg/mL (≈ 2.21 mM).

**Q.** And the solubility ([5]; 10% ethanol: 40% PEG 400 (w/v), aqueous with cosolvent or surfactant or cyclodextrin, thermodynamic from solid, read-out: Solubility)?
**A.** Its solubility is about 1700 µg/mL (≈ 5.36 mM).

**Q.** What about the solubility ([5]; 10% ethanol: 40% PEG 400 (w/v), read-out: Solubility) of the same compound?
**A.** The solubility was 1000 µg/mL (≈ 3.15 mM).

**Q.** What about the solubility ([5]; 20% (w/v) hydroxypropyl-β-cyclodextrin, aqueous with cosolvent or surfactant or cyclodextrin, thermodynamic from solid, read-out: Solubility) of the same compound?
**A.** The solubility was about 1000 µg/mL (≈ 3.15 mM).

**Q.** And the solubility ([5]; 20% (w/v) hydroxypropyl-β-cyclodextrin, read-out: Solubility)?
**A.** The solubility was 1000 µg/mL (≈ 3.15 mM).

**Q.** What about the solubility ([5]; 20% (w/v) sulfobutyl ether β-cyclodextrin, aqueous with cosolvent or surfactant or cyclodextrin, thermodynamic from solid, read-out: Solubility) of the same compound?
**A.** Its solubility is about 1000 µg/mL (≈ 3.15 mM).

**Q.** What about the solubility ([5]; 30% (v/v) acetonitrile, aqueous with cosolvent or surfactant or cyclodextrin, thermodynamic from solid, 30% acetonitrile, read-out: Solubility) of the same compound?
**A.** The solubility was 1600 µg/mL (≈ 5.04 mM).

**Q.** What about the “Fold improvement in solubility” value ([5]; 30% acetonitrile vs water) of the same compound?
**A.** Its value is 63 fold.

**Q.** And the solubility ([5]; 50% (v/v) PEG 400, aqueous with cosolvent or surfactant or cyclodextrin, thermodynamic from solid, 50% PEG 400, read-out: Solubility)?
**A.** Its solubility is about 1100 µg/mL (≈ 3.47 mM).

**Q.** What about the solubility ([5]; 50% (v/v) ethanol, aqueous with cosolvent or surfactant or cyclodextrin, thermodynamic from solid, 50% ethanol, read-out: Solubility) of the same compound?
**A.** Its solubility is about 2300 µg/mL (≈ 7.25 mM).

**Q.** What about the solubility ([5]; 100% PEG 400, organic solvent or mixture, thermodynamic from solid, pure PEG 400, read-out: Solubility) of the same compound?
**A.** The solubility was about 22000 µg/mL (≈ 69.3 mM).

**Q.** And the solubility ([5]; 100% ethanol, organic solvent or mixture, thermodynamic from solid, pure ethanol, read-out: Solubility)?
**A.** The solubility was about 11000 µg/mL (≈ 34.7 mM).

**Q.** And the Concentrations afforded ([5]; cosolvents and cyclodextrins)?
**A.** The Concentrations afforded was at least 1000 µg/mL.

**Q.** And the solubility ([5]; purified water, ambient temperature, read-out: Solubility in water (intrinsic solubility))?
**A.** The solubility was about 26 µg/mL (≈ 0.0819 mM).

**Q.** And the solubility ([5]; thermodynamic from solid, purified water, ambient temperature, read-out: Solubility in water (intrinsic solubility))?
**A.** The solubility was 26 ± 2.9 µg/mL (≈ 0.0819 mM).
